Experimental data reported in PubChem BioAssay (NCI).
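1) Cells in 96-well plates. 2) Compound, 48 h, 5 concentrations. 3) Linear interpolation between surrounding doses. 4) Unreached endpoint = highest concentration. GI50: concentration for 50% inhibition of growth. The concentration for full growth arrest is given as TGI.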

How the values were obtained:
Experiment in all cases: NCI tumour cell line growth inhibition, 48 h
786-0 renal = test system: 786-0 renal
LOX IMVI melanoma = test system: LOX IMVI melanoma
NCI/ADR-RES ovarian = test system: NCI/ADR-RES ovarian
SF-268 CNS = test system: SF-268 CNS
SF-539 CNS = test system: SF-539 CNS
SK-MEL-2 melanoma = test system: SK-MEL-2 melanoma
UACC-257 melanoma = test system: UACC-257 melanoma
UO-31 renal = test system: UO-31 renal

SMILES | GI50 (786-0 renal) [µM] | TGI (786-0 renal) [µM] | GI50 (LOX IMVI melanoma) [µM] | TGI (LOX IMVI melanoma) [µM] | GI50 (NCI/ADR-RES ovarian) [µM] | TGI (NCI/ADR-RES ovarian) [µM] | GI50 (SF-268 CNS) [µM] | TGI (SF-268 CNS) [µM] | GI50 (SF-539 CNS) [µM] | TGI (SF-539 CNS) [µM] | GI50 (SK-MEL-2 melanoma) [µM] | TGI (SK-MEL-2 melanoma) [µM] | GI50 (UACC-257 melanoma) [µM] | TGI (UACC-257 melanoma) [µM] | GI50 (UO-31 renal) [µM] | TGI (UO-31 renal) [µM]
CCn1c(-c2nonc2N)nc2ccc(F)cc21 | > 25 | > 25 | > 25 | > 25 | > 25 | > 25 | > 25 | > 25 | > 25 | > 25 | > 25 | > 25 | > 25 | > 25 | > 25 | > 25
COc1cc(/C=C2\CC3C4CC=C5CC(N6CCCC6)CC[C@]5(C)C4CC[C@]3(C)C2OC(C)=O)ccc1OCCN1CCCC1 (some centres undefined) | 1.73 | 3.16 | 1.27 | 2.6 | 2.52 | 5.2 | 2.53 | 6.04 | 1.92 | 3.5 | 2.09 | 3.7 | 1.95 | 3.53 | 1.86 | 3.35
Cc1ccc2/c(=C/c3ccc(N(C)C)cc3)c3cc(-c4ccccc4)[n+](C)n3c2c1 | 0.305 | 2.92 | < 0.01 | > 100 | 6.41 | > 100 | – | – | 0.0456 | 2.21 | – | – | 0.0307 | 1.71 | 0.92 | –
CNC(=O)c1cn(C[C@H](F)CCc2ccc(NC(=O)Cc3cc(OC4CC(F)(F)C4)cc(C)n3)nn2)nn1 | > 100 | > 100 | > 100 | > 100 | > 100 | > 100 | > 100 | > 100 | > 100 | > 100 | > 100 | > 100 | > 100 | > 100 | > 100 | > 100
CCCNCc1cc(C)cc2c1nc(N1CCNCC1)n2Cc1cc(C)c(F)c(C)c1 | 1.86 | 3.96 | 1.72 | 3.22 | 16.1 | 31 | 5.11 | 19.7 | 1.79 | 3.59 | 14.1 | 28.1 | – | – | 13.2 | 27.3
CNc1nc(NC2CCCC2)nc(Sc2ccc(OC)cc2)n1 | > 10 | > 10 | > 10 | > 10 | > 10 | > 10 | > 10 | > 10 | > 10 | > 10 | > 10 | > 10 | > 10 | > 10 | > 10 | > 10
Cc1sc(C)c(-c2ccc(CO)o2)c1-c1ccc(CO)o1 | – | > 100 | 94.3 | > 100 | > 84.4 | > 100 | 91.1 | > 100 | > 100 | > 100 | 5.03 | > 100 | – | – | 28.8 | > 100
C=C1C(=O)O[C@H]2[C@H]1CC/C(COC(=O)c1cc3cc(OC)ccc3[nH]1)=C\CC[C@@]1(C)O[C@@H]21 | 1.27 | 2.68 | 0.3 | 1.34 | 1.68 | 4.9 | 1.66 | 3.65 | 1.02 | 2.25 | 1.6 | 3.05 | 1.61 | 3 | 1.12 | 2.37
Cc1c(-c2nc(N)nc(C3CC3)c2C)nc(N)nc1C1CC1 | – | > 100 | – | > 100 | – | > 100 | – | > 100 | – | > 100 | – | > 100 | – | > 100 | – | > 100
COc1ccc2c(c1)[C@@]13CCN4CC5=CCO[C@H]6CC(=O)N2[C@H]1[C@H]6[C@H]5C[C@H]43 | – | > 100 | – | > 100 | – | > 100 | – | > 100 | – | > 100 | – | > 100 | – | > 100 | – | > 100
Clc1ccc(OCc2nnc3n2N=C(c2ccc(Cl)cc2Cl)CS3)c(Cl)c1 | 28.5 | 98.8 | 14.1 | 31 | 27 | 91.6 | 22.9 | 66.5 | 18.7 | 38.7 | 25.1 | 57 | 24 | 52 | 18.2 | 47.5
COC(=O)c1c(O)ccc2[nH]c(C)c(C#N)c12 | 31.6 | > 100 | 30.9 | > 100 | > 100 | > 100 | 40 | > 100 | – | – | > 100 | > 100 | > 100 | > 100 | 33.9 | > 100
COC(=O)NC/C=C\c1nc(CC/C=C\C(=O)OC2CC3CC(=O)O[C@@H](/C=C/CC(C)C)C[C@@H]4CCC(C)C(C[C@@H](OC)CC(C2)O3)O4)co1 (some centres undefined) | < 0.01 | 39.9 | 0.091 | 61.9 | 38.3 | > 100 | < 0.01 | 84 | < 0.01 | 38.3 | 12.8 | 94.1 | > 100 | > 100 | 2.46 | 74.7
CN(C)CCNC(=O)Nc1c(C#N)[n+]([O-])c2cc(Cl)c(Cl)cc2[n+]1[O-] | 35.8 | > 100 | 18.3 | > 100 | > 100 | > 100 | 9.47 | > 100 | 18.9 | 47.3 | 15.9 | 50.6 | 36.5 | > 100 | 45 | > 100
C=CC(=O)Nc1cccc(Nc2nc(Nc3ccc(OCCOC)cc3)ncc2F)c1 | 0.887 | 13.1 | 1.12 | 3.62 | 2.94 | 16.3 | 2.06 | 16 | 1.47 | 4.95 | 1.9 | 8.65 | 6.4 | 22.5 | 0.549 | 5.06
COc1ccc(C2C(C#N)=C(N)OC3=C2CCCc2ccc(F)cc23)cc1OC (centres undefined) | 14.7 | 29.8 | 21.9 | 44.8 | 16.6 | 43.9 | 20.1 | 48.5 | 16.6 | 32.2 | 21.2 | 57.9 | 29.6 | > 67.8 | 16.5 | 31.8
O=P(O)(O)C(O)(Cn1ccnc1)P(=O)(O)O | 19 | > 70 | > 47 | > 100 | > 64.1 | > 100 | > 100 | > 100 | 20.3 | > 100 | > 100 | > 100 | > 100 | > 100 | > 68.3 | > 100

SMILES | GI50 (786-0 renal) [µM] | TGI (786-0 renal) [µM] | GI50 (LOX IMVI melanoma) [µM] | TGI (LOX IMVI melanoma) [µM] | GI50 (NCI/ADR-RES ovarian) [µM] | TGI (NCI/ADR-RES ovarian) [µM] | GI50 (SF-268 CNS) [µM] | TGI (SF-268 CNS) [µM] | GI50 (SF-539 CNS) [µM] | TGI (SF-539 CNS) [µM] | GI50 (SK-MEL-2 melanoma) [µM] | TGI (SK-MEL-2 melanoma) [µM] | GI50 (UACC-257 melanoma) [µM] | TGI (UACC-257 melanoma) [µM] | GI50 (UO-31 renal) [µM] | TGI (UO-31 renal) [µM]
Cc1ccc([N+](=O)[O-])c2c(NCCCN(C)C)ccnc12 | – | > 100 | – | > 100 | – | > 100 | – | > 100 | – | > 77 | – | > 100 | – | > 91.1 | – | > 100
COc1ccc(NC2=C(Br)C(=O)C(C)=C(C)C2=O)cc1 | 15.7 | 29.9 | 1.67 | 3.17 | 2.04 | 4.65 | 11.9 | 28.2 | 13.5 | 26.7 | 11.4 | 28.3 | 1.75 | 3.37 | 1.73 | 3.16
CCN(Cc1c(F)cccc1F)c1ccc(CO)c(Cl)c1 | 15.3 | 45.6 | 17.4 | 32.4 | 6.86 | 43.2 | 24.8 | > 77.3 | 20.5 | > 59.2 | 14.6 | 31.8 | 0.0389 | 0.149 | 2.3 | 51.4
N#Cc1c(-c2ccccc2)nc2c(c(-c3ccccc3)nn2-c2ccccc2)c1-c1ccc(O)cc1 | 2.16 | 5.35 | 1.68 | 3.05 | 2.27 | 5.62 | 2.83 | 9.14 | 1.25 | 2.76 | 2.39 | 5.65 | 3.13 | 12.1 | 2.02 | 4.16
Cc1noc(C)c1-c1ccc2[nH]c(=O)n3c2c1OC[C@@H]3c1ccccn1 | 3.94 | > 100 | 0.581 | > 32.1 | 2.33 | > 100 | > 100 | > 100 | 2.05 | > 100 | > 89.5 | > 100 | 3.92 | > 100 | 0.18 | > 100
NC(N)=N/N=C/c1c(-c2ccccn2)nc2sc(Cl)cn12 | 8.45 | 16.4 | 7.26 | 14 | 13.6 | 35.6 | 8.04 | 17.8 | 1.54 | 3.49 | 7.93 | 15.1 | 7.45 | 14.8 | 7.85 | 14.8
Cn1c(N)nc2c(nc(OCc3ccccc3)n2C2OC(CO)C(O)C2O)c1=O (centres undefined) | – | > 100 | – | > 100 | – | – | – | > 100 | – | – | – | > 100 | – | > 100 | – | > 100
COc1ccc2c(c1)C=CC(C#N)N2C(=O)c1ccccc1 (centres undefined) | < 0.01 | > 100 | < 0.01 | > 100 | < 0.0464 | – | 0.488 | > 100 | < 0.01 | 0.0238 | < 0.01 | > 100 | 45.2 | > 100 | < 0.01 | > 100
CNC(=O)c1ccc(-c2cnc3ncc(Cc4ccc5ncccc5c4)n3n2)cc1F | 64.3 | > 100 | > 100 | > 100 | > 100 | > 100 | 83 | > 100 | 54.1 | > 100 | 97.1 | > 100 | > 100 | > 100 | > 100 | > 100
CCCS(=O)(=O)c1nc(NC2CC2)cc(-c2ccc3c(ccn3C3CC(C)(C)NC(C)(C)C3)c2)n1 | 1.21 | 2.64 | 1.67 | 3.17 | 2 | 4.46 | 1.88 | 3.89 | – | – | 1.88 | 3.41 | – | – | 1.6 | 3.16
COc1ccc(-c2cc(-c3cc(Cl)ccc3Cl)nc3nc(=S)[nH]c(N)c23)cc1 | 20.1 | 37.4 | 14.2 | 44.4 | 20.1 | 45.2 | 57.7 | > 100 | 27 | 82.9 | 81.7 | > 100 | – | – | 58.1 | > 100
C=C1CC(COc2cc(Cl)nc(N)n2)C1 | 49.5 | – | – | – | 33.4 | – | 70.4 | – | – | – | 31.4 | – | – | – | 35.6 | –
CN(C)c1nc(-c2cccs2)n2nc(-c3ccc(Cl)cc3)cc2n1 | 3.93 | > 100 | 3.58 | > 100 | – | – | 21.3 | > 100 | 25.5 | > 100 | 9.03 | > 100 | – | – | – | –
O=C1c2ccccc2-c2c1c1ccccc1c(=O)n2CCNCCCNCCn1c2c(c3ccccc3c1=O)C(=O)c1ccccc1-2 | 0.0539 | 0.326 | 0.0461 | 0.331 | – | – | 0.156 | 6.81 | 0.0848 | 1.36 | 0.514 | 2.2 | 1.17 | 2.91 | 0.221 | 1
CCOC(=O)[C@@H](C)C[C@H](Cc1ccccc1)NC(=O)c1csc([C@@H](C[C@H](C(C)C)N(C)C(=O)[C@@H](NC(=O)[C@H]2CCCCN2C)C(C)(C)C)OC(C)=O)n1 | < 0.00167 | > 6.61 | < 0.00167 | > 16.7 | 0.00542 | – | < 0.00167 | > 16.7 | < 0.00167 | 0.00437 | < 0.00167 | > 16.7 | – | – | 0.00297 | > 10.8
Oc1c(Br)cc(CN(Cc2cc(Br)c(O)c(Br)c2)C2CCCCC2)cc1Br | – | > 100 | – | > 100 | – | > 100 | – | > 100 | – | – | – | > 100 | – | > 100 | – | > 100
